Data on three molecules can be found in US7387807B2, “Topical composition comprising feverfew” (Johnson & Johnson Consumer France, SAS, Roc Division, priority 1999, dated 2008).

Holding throughout (type): in vivo
Experiment [1] has as its system Albino male CD-1 mice. As to the kind of experiment: Phorbol ester (TPA) induced mouse ear edema. The following applies: 0.1% topical, 20 μL immediately after TPA; 5.5 hours. The procedure:
The following experiments were carried out to test the effect of feverfew and substantially parthenolide-free feverfew in a phorbol ester PITA) induced edema assay. […] Albino male CD-1 mice, 7-9 weeks old, were used. A 0.005% (w/v) TPA solution was made in acetone. A 20 μL volume of this TPA solution was applied to the dorsal left ear of the mouse. Test compounds were applied immediately to the left ear (20 μL) after TPA in a 70% ethanol/propylene glycol vehicle. The right ear was not treated. The mice were sacrificed by CO2 inhalation (5.5 hours after TPA), the left and right ears were removed and a 7 mm biopsy was removed from each ear and weighed. The difference in biopsy weights between the right and left ear was calculated.

Experiment [2] concerns Albino male CD-1 mice. In words: Arachidonic acid induced ear edema. The following applies: 20 μl immediately after AA, 1 hour. The procedure: In this in vivo model, feverfew's ability to reduce arachidonic acid induced edema was compared to the known cycloxygenase/lipoxgenase inhibitor tepoxalin. Albino male CD-1 mice, 7-9 weeks old, were used. A 20% (w/v) arachidonic acid (AA) solution was made in acetone. A 20 μl volume of the AA was applied to the dorsal left ear of the mouse. Test compounds (20 μl) were applied immediately to the left ear after AA in a 70% ethanol/30% propylene glycol vehicle. The right ear was not treated. The mice were sacrificed by CO2 inhalation 1 hour after AA, the left and right ears were removed and a 7 mm biopsy was removed from each ear and weighed. The difference in biopsy weights between the right and left ear was calculated. Antiinflammatory effects of compounds are evident as an inhibition of the increase in ear weight.

Experiment [3] has as its system human volunteers. As to the kind of experiment: Prevention of UVB induced erythema, human study. The following applies: 2 mg/cm^2 twice daily for 2 days before 2MED UVB. The method, then:
Test product was applied to 5 different locations on the volar forearm twice daily for 2 consecutive days (2 mg/cm^2). The sites were exposed to 2MED UVB. Chromameter measurements were made prior to irradiation and at 18, 24, 42 and 48 hours post irradiation. The Colorimetric Erythema Index (CEI) was calculated for each time point. The following reductions in erythema were obtained: […]

The test system of experiment [4] is human volunteers. As to the kind of experiment: Prevention of trauma (stratum corneum stripping) induced erythema, human study. The settings on record: applied twice daily for 2 days before stripping, total 2 hour period, compared to the vehicle. The procedure:
Test product was applied to the ventral side of the forearm twice daily for 2 consecutive days. […] Chromameter measurements were made prior to stripping and at 0.5, 1, 1.5 and 2 hours posts tripping. The Colorimetric Erythema Index (CEI) was calculated for each time point. For the total 2 hour period, and compared to the vehicle, the following reductions in erythema were obtained;

Experiment [5] concerns human volunteers. In words: Treatment of UVB induced erythema, human study. The following applies: 2 mg/cm^2 immediately after 2MED UV and 5 and 8 hours later. The procedure:
Ten healthy volunteers were irradiated with 2MED UV light on five distinct spots of the volar forearms. Test product was applied (2 mg/cm^2) on the irradiated sites immediately after irradiation, and 5 and 8 hours later. Erythema scores were measured before irradiation and 1, 4, 7 and 24 hours later. The following reductions in erythema were obtained: […]

In experiment [6] the test system is human volunteers. In words: Treatment of trauma (stratum corneum stripping) induced erythema, human study. The settings on record: applied for 2 hours immediately after stripping, total 2 hour period, compared to the vehicle. The procedure:
Test product was applied to the ventral side of the forearm for 2 hours, immediately after stripping. Chromameter measurements were made prior to stripping and at 0.5, 1, 1.5 and 2 hours post stripping. The Colorimetric Erythema Index (CEI) was calculated for each time point. For the total 2 hour period, and compared to the vehicle, the following reductions in erythema were obtained: […]

For experiment [7], the system named is Albino male CD-1 mice. In words: Oxazolone contact hypersensitivity, mouse ear. The settings on record: 0.1% topical, 20 μL to ear 1 hour after challenge; ear weight at 24 hours. The method, then:
The following experiments were carried out to test the effect of feverfew and substantially parthenolide-free feverfew in a contact […] assay. In this assay, the compositions of the invention were evaluated against hydrocortisone, a steroid known to inhibit contact hypersensitivity. Albino male CD-1 mice, 7-9 weeks old, were induce on the shaved abdomen with 50 μL of 3% oxazolone in acetone/corn oil Day 0). On Day 5, a 20 μL volume of 2% oxazolone in acetone was […] to the dorsal left ear of the mouse. […] The right ear was not treated. The mice were sacrificed by CO2 inhalation 24 hours after the oxazolone challenge, the left and right ears were removed and a 7 mm biopsy was taken from each ear and weighed. The difference in biopsy weights between the right and left ear was calculated. Antiinflammatory effects of compounds are evident as an inhibition of the increase in ear weight.

Consider `C[C@@H]1C[C@H]2[C@@H]3CCC4=CC(=O)C=C[C@]4(C)[C@@]3(F)[C@@H](O)C[C@]2(C)[C@@]1(O)C(=O)CO` [Dexamethasone], for which the “TPA induced ear edema, inhibition of the increase in ear weight, Study 2” value with Albino male CD-1 mice [1] came out at 97.2.
Turning to `COc1ccc(-n2nc(CCC(=O)N(C)O)cc2-c2ccc(Cl)cc2)cc1` [Tepoxalin], the “Arachidonic acid induced ear edema % Inhibition” value with Albino male CD-1 mice [2] (0.1% topical) was found to be 10.84%; in the experiment on Albino male CD-1 mice [2] (1.0% topical) it was 42.38%; in the experiment on Albino male CD-1 mice [2] (2.0% topical) it was 61.06%.
Take `C[C@]12CCC(=O)C=C1CC[C@@H]1[C@@H]2[C@@H](O)C[C@@]2(C)[C@H]1CC[C@]2(O)C(=O)CO` [Hydrocortisone]: the “Reduction of Erythema (%)” value with human volunteers [3] (0.1%) stood at 2.5%; in the experiment on human volunteers [3] (1%), 5.7%; in the experiment with human volunteers [4] (0.1%), 10%; with human volunteers [4] (1%) it was 19%; with human volunteers [5] (0.1%), 3.2%; in the experiment with human volunteers [5] (1%), 17.7%. For the same molecule, the “Reduction of Erythema (%)” value in the experiment on human volunteers [6] (0.1%) is listed as −3%; in the experiment with human volunteers [6] (1%) it was 14%. The “TPA induced ear edema, inhibition of the increase in ear weight, Study 1” value in the experiment with Albino male CD-1 mice [1] was determined as 96.9. The “Oxazolone contact hypersensitivity % Inhibition, Study 1” value in the experiment on Albino male CD-1 mice [7] is recorded as 96.9%. For the same molecule, the “Oxazolone contact hypersensitivity % Inhibition, Study 2” value in the experiment with Albino male CD-1 mice [7] is on record as 87.6%. The “Oxazolone contact hypersensitivity % Inhibition, Study 3” value with Albino male CD-1 mice [7] came to 91.0%.
